Results from ChEMBL document CHEMBL5352493, “Dual inhibitors of ASK1 and PDK1 kinases: Design, synthesis, molecular docking and mechanism studies of N-benzyl pyridine-2-one containing derivatives as anti-fibrotic agents” (Eur J Med Chem, 2023).
Calls of active or inactive are those of the source. The calls are words filed in the database; no cut-off is given here.

What was measured:
[1] = tested on: HFL1; assay: Induction of apoptosis in HLF1 cells assessed as late apoptotic cells at 15 uM incubated for 24 hrs measured by annexinV-FITC/PI based flow cytometric analysis (reference value: 0.08%); type: functional, Homo sapiens
[2] = Antiproliferative against rat NRK-49F cells measured after 48 hrs by CCK8 assay; type: toxicity, cell-based
[3] = tested on: HFL1; assay: Induction of apoptosis in HLF1 cells assessed as viable cells at 5 uM incubated for 24 hrs measured by annexinV-FITC/PI based flow cytometric analysis (reference value: 88.3%); type: functional; settings: Homo sapiens, read-out: Activity
[4] = Antiproliferative against HLF1 cells measured after 48 hrs by CCK8 assay; type: toxicity, cell-based; settings: human, HFL1 cells (description prints HLF1)
[5] = tested on: HFL1; assay: Induction of apoptosis in HLF1 cells assessed as necrotic cells at 15 uM incubated for 24 hrs measured by annexinV-FITC/PI based flow cytometric analysis (reference value: 0%); type: functional, Homo sapiens
[6] = Antiproliferative against rat HSC-T6 cells measured after 48 hrs by CCK8 assay; type: toxicity, cell-based
[7] = tested on: HFL1; assay: Induction of apoptosis in HLF1 cells assessed as late apoptotic cells at 5 uM incubated for 24 hrs measured by annexinV-FITC/PI based flow cytometric analysis (reference value: 0.08%); type: functional, Homo sapiens
[8] = tested on: HFL1; assay: Antifibrotic activity in TGF-beta1 induced HLF1 cells assessed as decrease in phosphorylated smad3 level measured at 5 to 10 uM after 24 hrs by Western blotting analysis; type: functional, cell-based; settings: Homo sapiens, dose 5-10 µM
[9] = tested on: HFL1; assay: Downregulation of phosphorylated JNK in TGF-beta1 induced HFL1 cells at 5 to 10 uM for 24 hrs by Western blotting analysis; type: functional, cell-based; settings: Homo sapiens, dose 5-10 µM
[10] = tested on: HFL1; assay: Induction of apoptosis in HLF1 cells assessed as necrotic cells at 5 uM incubated for 24 hrs measured by annexinV-FITC/PI based flow cytometric analysis (reference value: 0%); type: functional, Homo sapiens
[11] = tested on: HFL1; assay: Downregulation of phosphorylated Akt in TGF-beta1 induced HFL1 cells at 10 microM for 24 hrs by Western blotting analysis; type: functional, cell-based; settings: Homo sapiens
[12] = tested on: HFL1; assay: Induction of apoptosis in HLF1 cells assessed as late apoptotic cells at 10 uM incubated for 24 hrs measured by annexinV-FITC/PI based flow cytometric analysis (reference value: 0.08%); type: functional, Homo sapiens
[13] = tested on: HFL1; assay: Induction of apoptosis in HLF1 cells assessed as early apoptotic cells at 10 uM incubated for 24 hrs measured by annexinV-FITC/PI based flow cytometric analysis (reference value: 11.6%); type: functional, Homo sapiens
[14] = tested on: HFL1; assay: Downregulation of phosphorylated p38 in TGF-beta1 induced HFL1 cells at 5 to 10 uM for 24 hrs by Western blotting analysis; type: functional, cell-based; settings: Homo sapiens, dose 5-10 µM
[15] = Antiproliferative against human BEAS-2B cells measured after 48 hrs by CCK8 assay; type: toxicity, cell-based
[16] = tested on: HFL1; assay: Induction of apoptosis in HLF1 cells assessed as early apoptotic cells at 5 uM incubated for 24 hrs measured by annexinV-FITC/PI based flow cytometric analysis (reference value: 11.6%); type: functional, Homo sapiens
[17] = tested on: HFL1; assay: Antifibrotic activity in TGF-beta1 induced HLF1 cells assessed as decrease in collagen-I expression level measured at 5 to 10 uM after 24 hrs by Western blotting analysis; type: functional, cell-based; settings: Homo sapiens, dose 5-10 µM
[18] = tested on: HFL1; assay: Induction of apoptosis in HLF1 cells assessed as viable cells at 10 uM incubated for 24 hrs measured by annexinV-FITC/PI based flow cytometric analysis (reference value: 88.3%); type: functional; settings: Homo sapiens, read-out: Activity
[19] = tested on: HFL1; assay: Downregulation of phosphorylated ASK1 in TGF-beta1 induced HFL1 cells at 5 to 10 uM for 24 hrs by Western blotting analysis; type: functional, cell-based; settings: Homo sapiens, dose 5-10 µM
[20] = biological target: T1, Mitogen-activated protein kinase kinase kinase 5 (Homo sapiens, UniProt Q99683); assay: Inhibition of human recombinant ASK1 using MBP as substrate preincubated for 1 hr followed by reagent addition incubated for 40 mins by ATP-Glo kinase assay
T1 sequence (Q99683 whole entry): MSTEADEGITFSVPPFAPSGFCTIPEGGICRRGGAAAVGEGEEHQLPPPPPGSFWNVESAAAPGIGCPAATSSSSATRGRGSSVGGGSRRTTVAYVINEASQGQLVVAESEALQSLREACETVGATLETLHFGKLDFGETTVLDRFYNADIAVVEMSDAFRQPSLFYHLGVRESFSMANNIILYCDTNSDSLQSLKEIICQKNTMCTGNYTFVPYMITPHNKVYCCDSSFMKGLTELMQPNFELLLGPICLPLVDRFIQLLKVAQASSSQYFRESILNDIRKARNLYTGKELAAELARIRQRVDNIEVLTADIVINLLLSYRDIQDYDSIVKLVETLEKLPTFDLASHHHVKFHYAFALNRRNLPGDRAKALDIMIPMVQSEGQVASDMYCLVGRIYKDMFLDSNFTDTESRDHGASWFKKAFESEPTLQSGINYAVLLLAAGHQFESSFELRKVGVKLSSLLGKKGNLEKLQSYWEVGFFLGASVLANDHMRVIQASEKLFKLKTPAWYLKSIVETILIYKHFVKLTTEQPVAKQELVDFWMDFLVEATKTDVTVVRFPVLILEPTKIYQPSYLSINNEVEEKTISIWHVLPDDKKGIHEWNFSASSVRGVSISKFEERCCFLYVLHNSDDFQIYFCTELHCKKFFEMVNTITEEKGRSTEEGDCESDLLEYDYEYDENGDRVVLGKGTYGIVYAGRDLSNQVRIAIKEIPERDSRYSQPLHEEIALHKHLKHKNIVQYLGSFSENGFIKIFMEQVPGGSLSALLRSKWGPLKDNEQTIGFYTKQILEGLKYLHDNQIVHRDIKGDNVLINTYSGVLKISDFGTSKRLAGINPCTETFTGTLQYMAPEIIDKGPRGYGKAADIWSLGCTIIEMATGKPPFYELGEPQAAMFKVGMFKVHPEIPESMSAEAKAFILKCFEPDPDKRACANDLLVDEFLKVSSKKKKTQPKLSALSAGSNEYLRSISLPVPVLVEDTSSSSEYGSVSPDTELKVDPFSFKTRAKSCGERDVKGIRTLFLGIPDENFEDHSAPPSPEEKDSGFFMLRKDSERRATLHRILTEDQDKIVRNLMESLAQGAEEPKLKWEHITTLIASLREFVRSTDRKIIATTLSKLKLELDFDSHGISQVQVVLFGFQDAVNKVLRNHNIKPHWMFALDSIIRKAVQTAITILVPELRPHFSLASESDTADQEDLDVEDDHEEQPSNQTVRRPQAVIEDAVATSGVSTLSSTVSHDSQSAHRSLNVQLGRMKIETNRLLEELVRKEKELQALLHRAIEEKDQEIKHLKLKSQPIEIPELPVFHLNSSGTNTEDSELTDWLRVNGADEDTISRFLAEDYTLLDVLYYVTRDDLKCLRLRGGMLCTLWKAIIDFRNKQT

[21] = tested on: HFL1; assay: Downregulation of phosphorylated PDK1 in TGF-beta1 induced HFL1 cells at 5 to 10 microM for 24 hrs by Western blotting analysis; type: functional, cell-based; settings: Homo sapiens, dose 5-10 µM
[22] = tested on: HFL1; assay: Induction of apoptosis in HLF1 cells assessed as early apoptotic cells at 15 uM incubated for 24 hrs measured by annexinV-FITC/PI based flow cytometric analysis (reference value: 11.6%); type: functional, Homo sapiens
[23] = tested on: HFL1; assay: Antifibrotic activity in TGF-beta1 induced HLF1 cells assessed as decrease in alpha SMA expression level measured at 5 to 10 uM after 24 hrs by Western blotting analysis; type: functional, cell-based; settings: Homo sapiens, dose 5-10 µM
[24] = tested on: HFL1; assay: Antifibrotic activity in TGF-beta1 induced HLF1 cells assessed as decrease in phosphorylated smad2 level measured at 5 to 10 uM after 24 hrs by Western blotting analysis; type: functional, cell-based; settings: Homo sapiens, dose 5-10 µM
[25] = tested on: HFL1; assay: Induction of apoptosis in HLF1 cells assessed as viable cells at 15 uM incubated for 24 hrs measured by annexinV-FITC/PI based flow cytometric analysis (reference value: 88.3%); type: functional; settings: Homo sapiens, read-out: Activity
[26] = tested on: HFL1; assay: Induction of apoptosis in HLF1 cells assessed as decrease in antiapoptotic Bcl-2 protein at 5 to 10 uM for 24 hrs by Western blotting analysis; type: functional, cell-based; settings: Homo sapiens, dose 5-10 µM
[27] = tested on: HFL1; assay: Induction of apoptosis in HLF1 cells assessed as necrotic cells at 10 uM incubated for 24 hrs measured by annexinV-FITC/PI based flow cytometric analysis (reference value: 0%); type: functional, Homo sapiens

`CC(C)n1cc(-c2cc(C(=O)Nc3cccc(-c4nncn4C4CC4)n3)c(=O)n(Cc3ccccc3F)c2)cn1` gave an Activity [1] of 0.069%, an IC50 at 48 h [2] of 14.8 µM and a viability at 5 µM [3] of 80.5%. For the same compound, the IC50 at 48 h [4] was 9.2 µM, the Activity [5] was 0% and the IC50 at 48 h [6] was 25 µM. The Activity [7] was 0.092%, the Activity [8] was “Active” and the Activity [9] was “Active”. The Activity [10] was 0%, the Activity [11] was “Active” and the Activity [12] was 0.034%. For the same compound, the Activity [13] was 25.6%, the Activity [14] was “Active” and the IC50 at 48 h [15] was 33 µM. The Activity [16] was 19.4%, the Activity [17] was “Dose-Dependent Effect” and the viability at 10 µM [18] was 74.3%. For the same compound, the Activity [19] was “Active”, the IC50 [20] was 0.00913 µM and the Activity [21] was “Dose-Dependent Effect”. The Activity [22] was 30%, the Activity [23] was “Dose-Dependent Effect” and the Activity [24] was “Active”. For the same compound, the viability at 15 µM [25] was 69.9%, the Activity [26] was “Active” and the Activity [27] was 0%.
